PMC5595280, “Cytotoxicity and anti-tumor effects of new ruthenium complexes on triple negative breast cancer cells” (PLoS ONE, 2017)

Key:
Type in all cases: cell-based, human
[1] = tested on: MDA-MB-231 cells; test: Colony formation (clonogenic) assay; conditions: 3 h treatment, 10 days
Description: Exponentially growing MDA-MB-231 cells were harvested, counted and seeded (300 cells/plate) into Petri dishes. Cells were allowed to grow at 37°C in 5% CO2 overnight and then, treated with different concentrations of complex (4) for 3 h. After this time, the medium was changed to a fresh medium without any complex. After incubation for additional 10 days the cells were rinsed with PBS, fixed with methanol and acid acetic 3:1 for 5 min and stained with methanol and crystal violet 5% for 15min. Relative survival was calculated from the number of single cells that formed colonies of >50 cells on the tenth day.

[2] = tested on: MMP-9; test: Gelatin zymography of wound healing supernatants; conditions: 24 h
Description: MDA-MB-231 cells (1.0 x 10^5/well) were seeded into 12-wells culture plates and cultured in a medium containing FBS 10% to near confluence (80%) of the cell monolayer. Monolayers were carefully wounded using a pipette tip, and any cellular debris present was removed by washing with PBS. The wounded monolayers were then incubated in serum-free medium containing 2.5, 5, 10 and 20 μM of complex (4) for 24 h. After this time, supernatants of the wound healing assay were collected and tested for MMP secretion as previously described. Briefly, equal amounts of total protein ([…]) were subjected to electrophoresis. Zymography gels consisted of 10% polyacrylamide impregnated with gelatin at a final concentration of 1% in the presence of sodium dodecyl sulfate (SDS) under non-reducing conditions. […] Gels were then stained with coomassie brilliant blue for 30 min and destained in methanol and acetic acid for 20 min. Gelatin degrading enzymes were visualized as clear white bands against a blue background, indicating proteolysis of the substrate protein. The molecular mass of gelatinolytic activities was determined by comparison to reference protein molecular mass marker PageRuler Prestained Protein Ladder (Thermo Fisher Scientific). Activity bands were identified following the previous description according to their molecular weights.

[3] = tested on: MDA-MB-231 cells; test: Cell morphology (inverted microscope); conditions: MDA-MB-231, 50 μM, 24 h
Description: (§1) Exponentially growing MDA-MB-231, MCF-7 or MCF-10A cells were harvested, counted and seeded (1x10^5 cells/mL) and plated on sterile 12-well plates for 24 h. Cells were allowed to grow at 37°C in 5% CO2 overnight and then, treated or not (control) with different concentrations of the complexes (1–4) for 2 and 24 h. Cell morphology was examined under an inverted microscope (Nikon, T5100) with amplification of 100×.
(§2) In this work the cytotoxicity of the complexes was evaluated against the MDA-MB-231, MCF-7 and MCF-10A cells by morphology, clonogenic and MTT assays (Fig 2, Table 1). To investigate the effects on cell morphology, the complexes were incubated with cells at concentrations of 25 and 50 μM for 24 h.

[4] = tested on: MCF-10A cells; test: Cell morphology (inverted microscope); conditions: 50 μM, 24 h
Description: as §1, §2

[5] = tested on: MDA-MB-231 cells; test: Wound healing migration assay; conditions: 5, 10 and 20 μM, 24 and 48 h
Description: The effects of complex (4) on tumor cell migration was investigated by two methods, wound healing and transwell assays using Boyden chambers. For wound healing, MDA-MB-231 cells (2 x10^5/mL) were plated in 12-wells plates and incubated properly until the culture reached 100% of confluence. Afterwards, a straight scratch was made with a sterile pipette tip and cells were washed with culture medium to remove unbound cells and debris. Cells were incubated with complex (4) 5, 10 and 20 μM for 24 and 48 h. Cells were viewed using an inverted microscope (Nikon, T5100) at 40× total magnification and images were captured (Moticam, 1000-S camera) at 0 h, 24 h and 48 h. Closure area of migrating cells was measured using Image J software, and the percentage of wound closure was calculated, comparing time zero and 48 h, using a formula from Yue and co-workers.
% wound closure=(At=0h−At=Δh)/(At=0h)x (100)

[6] = tested on: MDA-MB-231 cells; test: DAPI staining for nuclear fragmentation; conditions: 60 and 70 μM, 3 h
Description: The apoptotic activity of the complex (4) was analyzed by DAPI staining and flow cytometry with PE-Annexin-V Apoptosis Detection Kit (BD Biosciences). For DAPI staining, MDA-MB-231 cells (2.0 x 10^4/100 μL) were seeded in 96-wells plates and maintained at 37°C in a humidified incubator with 5% CO2 for 24 h. In the next day, cells were treated with 60 and 70 μM of complex (4) and incubated for 3 h. Next, cells were washed with PBS, fixed with methanol and stained with DAPI 1 μg/mL (Life Technologies, Carlsbad, CA) in DMEM medium without FBS for 10 min. Fluorescence was captured in automated microscope ImageXpress® Micro XLS System (Molecular Devices).

[7] = tested on: Caspase-3, Caspase-9 and Bcl-2 protein levels in MDA-MB-231 cells; test: Western blotting of apoptosis related proteins; conditions: even at 2.5 μM, 6 h
Description: MDA-MB-231 cells (1.0 x 10^6/plate) were incubated for 6 h with (2.5, 5 and 10μM) or without (control) the complex (4) in Petri dishes (6 cm) at 37°C in a humidified incubator with 5% CO2. After incubation, cells were lysed using RIPA buffer (150 mM NaCl; 50 mM Tris-HCl pH 7.4; 50 mM NaF; 2 mM EDTA; 1.0% NP-40; 0.5 mM Na-deoxycholate; 0.1% SDS, pH 8.0) and the content was transferred to a 1.5 mL microtube. Protein concentrations of supernatants were determined using DC Protein Assay kit (Bio-Rad). […] Beta-actin was used as endogenous control. Substrate development was performed using SuperSignal West Dura Extended Substrate reagent (Thermo Scientific). Specific bands were visualized with ChemiDoc MP imager (BioRad Laboratories) and quantified with Image J software, normalized to β-actin.

SMILES: CC(=O)[O-].F[P-](F)(F)(F)(F)F.[Ru+2].c1ccc(-c2ccccn2)nc1.c1ccc(P(CCCCP(c2ccccc2)c2ccccc2)c2ccccc2)cc1 [Complex (4), [Ru(CH3CO2)(dppb)(bipy)]PF6]
- effect on colony formation ([1]; 20 μM): completely abolished the capacity of breast tumor cells to form colonies
- effect on colony number and size ([1]; 2.5, 5, 10 and 20 μM): significantly inhibited the colony number and size
- inhibition of expression of MMP-9 compared to untreated control ([2]; 20 μM): 60%
- effect on expression of MMP-9 ([2]; 2.5, 5 and 10 μM): did not inhibit the expression of MMP-9
- effect on cell morphology [3]: profoundly altered their morphology
- effect on cell morphology / cell density [4]: profoundly altered their morphology
- effect on cell migration (wound healing) [5]: inhibited MDA-MB-231 cell migration in a concentration dependent fashion
- apoptotic nuclei (DAPI) [6]: more apoptotic nucleic
- cleaved Caspase-3 protein levels [7]: increased
- cleaved Caspase-9 protein levels [7]: increased
